ChEMBL document CHEMBL3885881, “DrugMatrix”

Organism: Rattus norvegicus
Test: DrugMatrix - Regimen: Daily Repeat
Type: toxicity, organism-based, Sprague-Dawley
Design: regimen Daily Repeat, gender Male, age 6-8 weeks
Conditions: in vivo, po, route oral GAVAGE, vehicle 100 % SALINE; for GLUCOSE / LACTATE DEHYDROGENASE / LIPASE / PHOSPHORUS / SODIUM / TOTAL BILIRUBIN / TOTAL PROTEIN / ALANINE AMINOTRANSFERASE / ALBUMIN / ALKALINE PHOSPHATASE / ASPARTATE AMINOTRANSFERASE / BLOOD UREA NITROGEN / CARBON DIOXIDE / CHLORIDE / CHOLESTEROL / CREATINE PHOSPHOKINASE / CREATININE: tissue Plasma; for ABSOLUTE BASOPHIL / ABSOLUTE EOSINOPHIL / ABSOLUTE LYMPHOCYTE / ABSOLUTE MONOCYTE / ABSOLUTE SEGMENTED NEUTROPHIL / BASOPHIL / EOSINOPHIL / ERYTHROCYTE COUNT / HEMATOCRIT / HEMOGLOBIN / LEUKOCYTE COUNT / LYMPHOCYTE / MEAN CORPUSCULAR HEMOGLOBIN / MEAN CORPUSCULAR HEMOGLOBIN CONCENTRATION / MONOCYTE / NEUTROPHIL / NUCLEATED RED BLOOD CELLS / PLATELET COUNT: tissue Blood
[1] = 0 mg/kg, […], dose level Control, time 7 day
[2] = 140 mg/kg, 72 h, dose level Low, time 3 day
[3] = 140 mg/kg, 120 h, dose level Low, time 5 day
[4] = 700 mg/kg, 72 h, dose level Low, time 3 day

For `CN(C)C=O` [DIMETHYLFORMAMIDE], the GLUCOSE [1] was 132.67 mg/dL, the “LACTATE DEHYDROGENASE” value [1] was 107.17 u/L and the LIPASE [1] was 10.5 u/L. For the same compound, the PHOSPHORUS [1] was 10.47 mg/dL, the SODIUM [1] was 140.73 MEQ/L and the “TOTAL BILIRUBIN” value [1] was 0.12 mg/dL. For the same compound, the “TOTAL PROTEIN” value [1] was 6.18 G/DL, the “ABSOLUTE BASOPHIL” value [2] was 0 CELLS/uL and the “ABSOLUTE EOSINOPHIL” value [2] was 31.33 CELLS/uL. The “ABSOLUTE LYMPHOCYTE” value [2] was 5899.33 CELLS/uL, the “ABSOLUTE MONOCYTE” value [2] was 62.67 CELLS/uL and the “ABSOLUTE SEGMENTED NEUTROPHIL” value [2] was 306.67 CELLS/uL. For the same compound, the BASOPHIL [2] was 0%, the EOSINOPHIL [2] was 0.33% and the “ERYTHROCYTE COUNT” value [2] was 4.99 x10E6/uL. For the same compound, the HEMATOCRIT [2] was 31.43%, the HEMOGLOBIN [2] was 12.53 G/DL and the “LEUKOCYTE COUNT” value [2] was 6.3 x10E3/uL. The LYMPHOCYTE [2] was 94.67%, the “MEAN CORPUSCULAR HEMOGLOBIN” value [2] was 25.27 pg and the “MEAN CORPUSCULAR HEMOGLOBIN CONCENTRATION” value [2] was 40.07 G/DL. The MONOCYTE [2] was 0.67%, the NEUTROPHIL [2] was 4.33% and the “NUCLEATED RED BLOOD CELLS” value [2] was 0 /100WBC. The “PLATELET COUNT” value [2] was 734 x10E3/uL, the “ALANINE AMINOTRANSFERASE” value [2] was 52.67 u/L and the ALBUMIN [2] was 4.17 G/DL. For the same compound, the “ALKALINE PHOSPHATASE” value [2] was 264.67 u/L, the “ASPARTATE AMINOTRANSFERASE” value [2] was 88.67 u/L and the “BLOOD UREA NITROGEN” value [2] was 12.33 mg/dL. For the same compound, the “CARBON DIOXIDE” value [2] was 36.67 mmol/L, the CHLORIDE [2] was 97.33 MEQ/L and the CHOLESTEROL [2] was 97.67 mg/dL. The “CREATINE PHOSPHOKINASE” value [2] was 161.33 u/L, the CREATININE [2] was 0.33 mg/dL and the GLUCOSE [2] was 208 mg/dL. For the same compound, the “LACTATE DEHYDROGENASE” value [2] was 181.33 u/L, the LIPASE [2] was 10.67 u/L and the PHOSPHORUS [2] was 11.23 mg/dL. For the same compound, the SODIUM [2] was 148.43 MEQ/L, the “TOTAL BILIRUBIN” value [2] was 0.2 mg/dL and the “TOTAL PROTEIN” value [2] was 6.1 G/DL. For the same compound, the “ABSOLUTE BASOPHIL” value [3] was 0 CELLS/uL, the “ABSOLUTE EOSINOPHIL” value [3] was 0 CELLS/uL and the “ABSOLUTE LYMPHOCYTE” value [3] was 9653 CELLS/uL. The “ABSOLUTE MONOCYTE” value [3] was 169 CELLS/uL, the “ABSOLUTE SEGMENTED NEUTROPHIL” value [3] was 644.67 CELLS/uL and the BASOPHIL [3] was 0%. The EOSINOPHIL [3] was 0%, the “ERYTHROCYTE COUNT” value [3] was 6.77 x10E6/uL and the HEMATOCRIT [3] was 41.07%. For the same compound, the HEMOGLOBIN [3] was 15.33 G/DL, the “LEUKOCYTE COUNT” value [3] was 10.47 x10E3/uL and the LYMPHOCYTE [3] was 93.33%. For the same compound, the “MEAN CORPUSCULAR HEMOGLOBIN” value [3] was 22.63 pg, the “MEAN CORPUSCULAR HEMOGLOBIN CONCENTRATION” value [3] was 37.33 G/DL and the MONOCYTE [3] was 1.67%. For the same compound, the NEUTROPHIL [3] was 5%, the “NUCLEATED RED BLOOD CELLS” value [3] was 0 /100WBC and the “PLATELET COUNT” value [3] was 1170.67 x10E3/uL. For the same compound, the “ALANINE AMINOTRANSFERASE” value [3] was 57.33 u/L, the ALBUMIN [3] was 4.4 G/DL and the “ALKALINE PHOSPHATASE” value [3] was 234.67 u/L. For the same compound, the “ASPARTATE AMINOTRANSFERASE” value [3] was 93.67 u/L, the “BLOOD UREA NITROGEN” value [3] was 17.67 mg/dL and the “CARBON DIOXIDE” value [3] was 34.33 mmol/L. For the same compound, the CHLORIDE [3] was 96.33 MEQ/L, the CHOLESTEROL [3] was 111.33 mg/dL and the “CREATINE PHOSPHOKINASE” value [3] was 195.67 u/L. For the same compound, the CREATININE [3] was 0.19 mg/dL, the GLUCOSE [3] was 171.33 mg/dL and the “LACTATE DEHYDROGENASE” value [3] was 243 u/L. The LIPASE [3] was 11.33 u/L, the PHOSPHORUS [3] was 10.83 mg/dL and the SODIUM [3] was 145.97 MEQ/L. For the same compound, the “TOTAL BILIRUBIN” value [3] was 0.13 mg/dL, the “TOTAL PROTEIN” value [3] was 6.67 G/DL and the “ABSOLUTE BASOPHIL” value [4] was 0 CELLS/uL. For the same compound, the “ABSOLUTE EOSINOPHIL” value [4] was 0 CELLS/uL, the “ABSOLUTE LYMPHOCYTE” value [4] was 7783.67 CELLS/uL and the “ABSOLUTE MONOCYTE” value [4] was 176.17 CELLS/uL. The “ABSOLUTE SEGMENTED NEUTROPHIL” value [4] was 1123.5 CELLS/uL, the BASOPHIL [4] was 0% and the EOSINOPHIL [4] was 0%. For the same compound, the “ERYTHROCYTE COUNT” value [4] was 5.7 x10E6/uL, the HEMATOCRIT [4] was 37.75% and the HEMOGLOBIN [4] was 13.52 G/DL. The “LEUKOCYTE COUNT” value [4] was 9.08 x10E3/uL, the LYMPHOCYTE [4] was 86.17% and the “MEAN CORPUSCULAR HEMOGLOBIN” value [4] was 23.73 pg. For the same compound, the “MEAN CORPUSCULAR HEMOGLOBIN CONCENTRATION” value [4] was 35.83 G/DL, the MONOCYTE [4] was 1.83% and the NEUTROPHIL [4] was 12%. For the same compound, the “NUCLEATED RED BLOOD CELLS” value [4] was 0 /100WBC, the “PLATELET COUNT” value [4] was 951.67 x10E3/uL and the “ALANINE AMINOTRANSFERASE” value [4] was 77.33 u/L.
